The values below are quoted from earlier work in patent publication US20080003300A1, “Compostions containing Mg/Zn/F-CaP plus inhibitors of pro-inflammatory Cytokines (a combination of a Free-B-Ring flavonoids and a flavan) for osteoporosis prevention, therapy and treatment of bone diseases” (priority 2006, published 2008).

pIC50: −log10 of the molar value.

The target of one series is T1, COX-2 (Ovis aries, UniProt P79208).
T1 sequence (P79208 17-603): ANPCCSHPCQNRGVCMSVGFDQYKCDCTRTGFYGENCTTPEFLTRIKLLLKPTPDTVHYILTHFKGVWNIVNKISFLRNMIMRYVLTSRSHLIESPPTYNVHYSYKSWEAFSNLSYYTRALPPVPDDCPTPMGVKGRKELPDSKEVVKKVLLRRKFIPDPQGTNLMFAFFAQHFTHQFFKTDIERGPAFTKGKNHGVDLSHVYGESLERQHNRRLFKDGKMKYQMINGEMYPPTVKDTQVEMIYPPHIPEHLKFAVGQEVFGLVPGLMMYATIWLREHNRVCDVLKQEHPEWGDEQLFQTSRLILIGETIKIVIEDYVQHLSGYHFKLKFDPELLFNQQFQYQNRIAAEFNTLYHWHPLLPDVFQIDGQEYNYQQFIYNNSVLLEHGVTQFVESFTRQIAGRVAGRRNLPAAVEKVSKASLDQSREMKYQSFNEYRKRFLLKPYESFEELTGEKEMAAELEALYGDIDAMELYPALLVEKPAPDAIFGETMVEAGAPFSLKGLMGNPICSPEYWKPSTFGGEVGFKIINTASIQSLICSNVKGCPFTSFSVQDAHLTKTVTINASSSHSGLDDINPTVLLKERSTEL
As to conditions: Noreen et al. (1998).

The test system of series [1] is prostaglandin endoperoxide synthase. The note with it: Kalkbrenner et al. (1992).
Series [2] has as its system COX-2 gene transcription in human colon cancer DLD-1 cells. As to conditions: Mutoh et al. (2000).

In the case of `Oc1cc(O)c2c(c1)O[C@H](c1ccc(O)c(O)c1)[C@@H](O)C2` [(+)-catechin], at COX-2, the “selectivity for COX-2” value is recorded as “no selectivity for COX-2”.
What is called pIC50 is the negative decadic logarithm of the IC50, by convention in mol/L. For the compound `Oc1cc(O)c2c(c1)OC(c1ccc(O)c(O)c1)C(O)C2` (stereo not drawn) [Catechin], the pIC50 in series [1] was 4.40; in series [2], 3.38.
